# Data published in patent US7674826B2, “Use of a nutraceutical compositions in animal feed” (DSM IP Assets B.V., priority 2006, dated 2010).
# Assays:
# pigs = conditions: diets with 0.5% or 1% benzoic acid, 32 + 91 days; statement covers all animals
# Description: Room temperature was initially 27° C. and was lowered weekly by about 2° C. until 21-22° C.
# growing-fattening pig [1] = assay: Bone resistance: maximal breaking force of metacarpal diaphysis sections under compression, after long-term feeding; assay type: in vivo; conditions: for Resistance (Newton at the breaking point), right metacarpals: mean ± SD
# From the text: The term “bone resistance” as used herein denotes the maximal force in measured in Newton (N) necessary to break the bone determined by a compression machine.
# (§1) Environment humidity percentage throughout the experiment was 50%. […] Both diets were in mash form.
# (§2) All the diets were given in a mash form.
# (§3) At the end of the observation all the animals were slaughtered after electronarcosis for the determination of the bone resistance and mineralization. The collected bones were the right internal and external metacarpal. Samples were prepared from each of the collected bones immediately after slaughter. After careful removal of the soft tissue, a diaphysis section was obtained by sawing each bone. The obtained sections of about 3.5-cm long were immediately subjected to compression in order to determine the force in Newton necessary to break them (maximal-breaking force at the fracture point). The measurements were performed with a LR10K compression machine, using a XLC/10K/A1 force captor and a compression device TH23-196/AL (Lloyd Instruments, Fareham, UK). The broken bones were then dried in a drying oven at 105° C. during 24 hours and the dry matter (DM) was used for the determination of ash content, which was measured after 48 h incineration at 550° C. in a muffle furnace.
# (§4) Statistical treatment of the results involved the calculation of the mean and of the standard deviation as well as a two-factor hierarchical analysis of variance. The mathematical model was: Yijk=μ+Ai+Bij+Zijk, where μ is the mean, Ai is the diet effect, Bij is the combined effect of the diet and animal or pen and Zijk is the residual term. The analysis of variance was followed by a Duncan multiple range test when a significant Ai effect without Bij effect was observed (Statistical methods, 8th edition, Iowa University Press, Ames, Snedecor and Cochran, 1989). These calculations were performed using the Statistical Analysis System (SAS, 1990).
# growing-fattening pig [2] = assay: Bone mineralization: ash content of dried metacarpal bone after incineration, after long-term feeding; assay type: in vivo; conditions: for Mineralization (% of ash in DM), right metacarpals: mean ± SD of 32 measurements
# Description: The term “bone mineralization” as used herein denotes the percentage of ash after incineration of the bone compared to the dried bone matter (DM). Dry matter is defined as the weight of the bone sample after 24 hour in a drying oven compared to the initial weight of the sample.
# as §1, §2, §3, §4
# [3] = group B2: 0% 32 days, then 1% benzoic acid 91 days
# [4] = group C2: 0.5% 32 days, then 0.5% benzoic acid 91 days
# [5] = group D2: 0.5% 32 days, then 1% benzoic acid 91 days
compound,measurement,setting,value
O=C(O)c1ccccc1 [benzoic acid],Natural mortality during the experiment,pigs,no natural mortality was observed
same,Symptoms of illness during the experiment,pigs,did not present any symptoms of illness
same,Bone resistance versus controls (in words),"growing-fattening pig [1]; all the supplemented groups (B2, C2, D2)",significantly increased
same,"Resistance (Newton at the breaking point), right metacarpals","growing-fattening pig [1]; group B2: 0% benzoic acid in diet 32 days, then 1% for 91 days",625 ± 163^(2)bd Newton
same,"Resistance (Newton at the breaking point), right metacarpals","growing-fattening pig [1]; group C2: 0.5% benzoic acid in diet 32 days, then 0.5% for 91 days",621 ± 172^(2)d Newton
same,"Resistance (Newton at the breaking point), right metacarpals","growing-fattening pig [1]; group D2: 0.5% benzoic acid in diet 32 days, then 1% for 91 days",597 ± 192^(2)d Newton
same,Mineralization relative to controls (A2 = 100),growing-fattening pig [2]; [3],(102)
same,"Mineralization (% of ash in DM), right metacarpals",growing-fattening pig [2]; [3],60.26 ± 1.31^(1)d % of ash in DM
same,Ash content of the bones versus controls (in words),"growing-fattening pig [2]; group C2 (0.5% benzoic acid throughout), P<0.07",numerically higher
same,Mineralization relative to controls (A2 = 100),growing-fattening pig [2]; [4],(102)
same,"Mineralization (% of ash in DM), right metacarpals",growing-fattening pig [2]; [4],60.06 ± 1.33^(1)cd* % of ash in DM
same,Mineralization relative to controls (A2 = 100),growing-fattening pig [2]; [5],(102)
same,"Mineralization (% of ash in DM), right metacarpals",growing-fattening pig [2]; [5],60.14 ± 1.09^(1)d % of ash in DM
same,Ash content of the bones versus controls (in words),growing-fattening pig [2]; groups B2 and D2 (1% benzoic acid during 91 days),significantly higher
